The text below walks through data of patent US11253527B2, “Method and composition for inhibiting virus infection” (priority 2019, dated 2022).

Molecules are shown by their SMILES.

The subject of one series is HSV-1 virions. Description: Direct effect on infectivity of purified HSV-1 virions, plaque assay. Format: cell-based, Herpes simplex virus type 1. To be noted: purified virions incubated directly with drug 1 hour at 37° C., dose-dependent. The method, then:
Purified HSV-1 was incubated directly with media containing various concentrations of each Antrodia camphorata extracts for 1 hour at 37° C. The viral titers were then examined in oral epithelial cells (OC3) using the plaque assay. The results shown are the mean±SEM from at least three independent experiments. Statistical differences are shown by different lowercase letters (analysis of variance, Tukey, α=0.05).
(§1) The oral epithelial cell line (OC3) was used to determine the possible effects of Antrodia camphorata extracts on oral epithelial cells during HSV-1 infection. Cell monolayers were treated as illustrated in FIG. 4 (please also see details in the Materials and Methods section). Three experimental conditions, including no-treatment, pre-treatment and post-treatment were performed. Whether these Antrodia camphorata extracts have effects before or after viral infection were examined. The effects of Antrodia camphorata extracts on viral propagation (viral yields) in infected oral epithelial cells were examined. At 19-20 h post infection, viral yields in the supernatants were determined using the plaque assay. Viability of treated cells was also determined using the MTT assay for the mitochondrial dehydrogenase activity. Moreover, purified HSV-1 virions were directly treated with Antrodia camphorata extracts to examine whether Antrodia camphorata extracts exert anti-HSV-1 activity directly on virus particles before viral entry.
Oral epithelial cells (OC3 cells) were infected with HSV-1 at multiplicity of infection (MOI) of 5 or mock infected for 1 h at 37° C. for viral entry to occur. Unbound viruses were removed. Infected cells were then overlaid with appropriate media and incubated at 37° C. The Antrodia camphorata fruit body extracts used were A2 (Antrodia camphorata extracts), A3 (dehydrosulphurenic acid), A4 (antcin K), A5 (versisponic acid), and A6 (dehydroeburicoic acid). […]
Viral titers in the supernatants after infection were determined using the plaque assay. […] Plaques were observed and counted under an inverted microscope. […]

Series [1] has as its system Oral epithelial cells (OC3). Put plainly: MTT cell viability of mock- or HSV-1-infected oral epithelial cells (OC3). Format: cell-based. On the procedure: (§2) FIG. 4 provides Experimental conditions for evaluation of the effects of Antrodia camphorata fruit body extracts on oral epithelial cells during HSV-1 infection. Three experimental conditions, including no-treatment, pre-treatment and post-treatment were performed. Oral epithelial cells (OC3) were pre-treated with media only or media containing each Antrodia camphorata extracts for 2 hours, followed by HSV-1 inoculation. Cells were infected with HSV-1 viruses at multiplicity of infection (MOI) of 5 or mock infected for 1 hour at 37° C. for viral entry to occur. Antrodia camphorata extracts were not added during viral inoculation for 1 hour to avoid of its direct effects on virions. Mock- or HSV-1-infected cells were further incubated in the absence or presence of the drug for 19 hours.
as §1, with “entry. […]” for “entry.”
The mitochondrial dehydrogenase activity of treated cells was evaluated using the FBS-free medium containing 1 mg/ml of 3-[4,5-dimethylthiazol-2-yl]-2,5 diphenyltetrazolium bromide (MTT). […]

The subject of a further series is HSV-1 virus (KOS strain). Description: HSV-1 viral yields in supernatants of OC3 cells, plaque assay. The format is cell-based, Herpes simplex virus type 1. The method, then:
as §2, §1
HSV-1 virus (KOS strain) from the extra-cellular fluid of infected Vero cells was purified using sucrose-gradient. Purified viruses were stored frozen in small aliquots. Purified viruses were titered using the plaque assay.
Oral epithelial cells (OC3 cells) were infected with HSV-1 at multiplicity of infection (MOI) of 5 or mock infected for 1 h at 37° C. for viral entry to occur. Unbound viruses were removed. Infected cells were then overlaid with appropriate media and incubated at 37° C. The Antrodia camphorata fruit body extracts used were A2 (Antrodia camphorata extracts), A3 (dehydrosulphurenic acid), A4 (antcin K), A5 (versisponic acid), and A6 (dehydroeburicoic acid). For the effects of Antrodia camphorata fruit body extracts, oral cells were treated in three different experimental conditions (FIG. 1): (1) no treatment, (2) pre-treatment with each Antrodia camphorata fruit body extracts before infection and (3) post-treatment with each Antrodia camphorata fruit body extracts after infection. Purified HSV-1 virions were also incubated directly with media only or media containing Antrodia camphorata fruit body extracts. The viral infectivity of treated virions was then examined using the plaque assay.
Viral titers in the supernatants after infection were determined using the plaque assay. Cells were grown to confluence and infected with tenfold serial dilution of the samples. Cells were then overlaid with medium containing 3% carboxymethylcellulose to prevent the formation of secondary plaques. Cells were incubated until well-defined clear plaques were formed. Cells were fixed with 3.7% formaldehyde and stained with crystal violet. Plaques were observed and counted under an inverted microscope. The viral yield of the media-pretreated HSV-1 infected control was considered to be 100%.

Series [2] deals with HuS-E/2 immortalized human primary hepatocytes cells. Description: MTT cell viability, HuS-E/2 cells. To be noted: 48 h, 50 μg/ml.
The test system of a further series is HepG2.2.15 cells. Description: MTT cell viability, HepG2.2.15 cells. The settings on record: 48 h, 50 μg/ml.

Turning to `C=C(CC[C@@H](C)[C@H]1CC[C@H]2C3=C(C(=O)C[C@]12C)[C@@]1(C)CCC(O)[C@](C)(O)C1CC3O)C(C)C(=O)O` (stereo partly shown) [A4, antcin K], the “viral infectivity of treated HSV-1 virions” value in the series with HSV-1 virions was “statistically significantly inhibited”. For the same compound, the “viability of mock-infected cells or HSV-1 infected cells” value in series [1] is “not affected evidently”. The “viral yields in the supernatants, post-treatment” value in the series with HSV-1 virus (KOS strain) (OC3 cells post-treated after HSV-1 infection (MOI 5), 19 hours) is recorded as “significantly reduced”. For the same compound, in the series with HSV-1 virus (KOS strain) (OC3 cells pre-treated 2 hours before HSV-1 infection (MOI 5)), the “viral yields in the supernatants, pre-treatment” value was “little effects”. In addition, in the series on HSV-1 virus (KOS strain) (infected OC3 cells post-treated with 100 μg/ml, media control = 100%), the “viral yield reduced to” value was determined as 19%. In addition, the “toxic effect (MTT cell viability)” value is listed as “no toxic effect” in series [2] and “little or no toxic effect” in the series with HepG2.2.15 cells.
